Common to all, as to format: biochemical
For test [1], the target named is PKR T384W (Homo sapiens, UniProt P30613, T384W). Briefly: PKR T384W Single Point Percent Activation Assay. As to conditions: read-out: Act. % 384W. Summed up:
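Soluble PKR T384W (300 ng/well) preincubated 60 min at RT with 1 μM compound in 50 mM Tris pH 7.5, 100 mM KCl, 5 mM MgCl2, 1 mM DTT, 0.03% BSA. Started with ADP (0.08 mM); PEP 0.23 mM, LDH-coupled NADH (180 μM) consumption read at OD340, room temperature.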

In test [2] the target is T1, PKR R510Q (Homo sapiens, UniProt P30613, R510Q). Briefly: PKR R510Q Single Point Percent Activation Assay. As to conditions: read-out: Act. % 510Q. Summed up:
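Test compound was used at a single concentration of 1 μM and preincubated 60 min at room temperature with PKR R510Q (40 ng/well). The buffer was 50 mM Tris pH 7.5, 100 mM KCl, 5 mM MgCl2, 1 mM DTT and 0.03% BSA. The reaction was started with 0.2 mM ADP and read as OD340 in an LDH-coupled system (0.11 mM PEP, 180 μM NADH).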

The target in test [3] is wild type PKR (Homo sapiens, UniProt P30613). The test can be described thus: PKR Mutant Assay (AC50), wild type PKR. The conditions noted are these: read-out: PKR WT AC50. On the procedure:
(§1) • PKR or PKR mutant enzyme solution was diluted in assay buffer. • 2 μL of test compound was added into wells first, and then 180 μL reaction mix was added. • Reactions mixture with test compound was assembled except for ADP, and plates were stored for 60 minutes at room temperature. • 20 uL ADP was added to start reaction at room temperature and reaction progress was measured as changes in absorbance at 340 nm wavelength at room temperature.
(§2) Test Compound Preparation: • Test compound stock was made at 100× concentration in 100% DMSO (10 mM) • 1 to 3 dilutions were made for 11 points (i.e. 50 μl of first concentration added to 100 μl 100% DMSO to yield 3.33 mM, 50 μl of this added to 100 μl DMSO to yield 1.11 mM, and so forth) • 1 to 100 dilution into assay (2 μl in 200 μl) yielded starting concentration of 100 μM, decreasing 3 fold for 11 points. Assay Buffer: 100 mM KCl, 50 mM Tris 7.5, 5 mM MgCl2, 1 mM DTT, 0.03% BSA Reaction Mixture: PKR mutant enzyme: 80-400 ng/well; ADP: 0.22-1.65 mM; PEP: 0.1-0.5 mM; NADH: 180 uM; LDH: 0.5 units (Sigma#59023); DTT: 1 mM; BSA: 0.03%.

Test [4] deals with T2, PKR R532W (Homo sapiens, UniProt P30613, R532W). The test can be described thus: PKR R532W Single Point Percent Activation Assay. As to conditions: read-out: Act, % 532W. In short, it runs like this: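 PKR R532W (100 ng/well) preincubated 60 min at RT with compound at 1 μM in Tris pH 7.5, KCl, MgCl2, DTT, BSA. Reaction started with ADP (0.36 mM), with PEP 0.1 mM, NADH 180 μM and LDH coupling; read at OD340, room temperature.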
T2 sequence (P30613 whole entry R532W): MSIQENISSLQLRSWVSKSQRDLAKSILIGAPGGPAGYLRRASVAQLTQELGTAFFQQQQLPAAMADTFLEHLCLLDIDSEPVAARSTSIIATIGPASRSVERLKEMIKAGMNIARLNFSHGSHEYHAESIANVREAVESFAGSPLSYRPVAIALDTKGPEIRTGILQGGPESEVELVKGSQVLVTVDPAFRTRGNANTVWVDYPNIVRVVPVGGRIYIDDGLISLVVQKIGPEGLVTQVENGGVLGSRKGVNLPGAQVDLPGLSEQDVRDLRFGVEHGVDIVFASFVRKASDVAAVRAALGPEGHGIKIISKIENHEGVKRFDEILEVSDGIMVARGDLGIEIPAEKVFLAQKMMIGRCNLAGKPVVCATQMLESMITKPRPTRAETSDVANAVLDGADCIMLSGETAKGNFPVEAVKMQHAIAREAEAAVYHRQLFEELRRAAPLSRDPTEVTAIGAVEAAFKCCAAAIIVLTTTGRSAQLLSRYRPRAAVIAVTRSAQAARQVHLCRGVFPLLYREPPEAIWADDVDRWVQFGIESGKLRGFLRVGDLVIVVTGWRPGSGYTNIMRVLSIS

Test [5] deals with PKR G364D (Homo sapiens, UniProt P30613, G364D). Briefly: PKR Mutant Assay (AC50), PKR G364D. On the procedure: as §1, §2
PKR G364D, sequence (P30613 whole entry G364D): as the sequence (P30613 whole entry R532W) above, with G364D, W532R counted along it
Test [6] addresses PKR wt (Homo sapiens, UniProt P30613). Briefly: PKR WT Single Point Percent Activation Assay. In short, it runs like this: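 Single concentration of 1 μM compound preincubated 60 min at RT with PKR wt (100 ng/well) in Tris pH 7.5, KCl, MgCl2, DTT, BSA. Reaction started with ADP (0.48 mM final) with PEP 0.15 mM, coupled LDH/NADH (180 μM), read at OD340, room temperature; given as percent activation.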

Test [7] concerns the target T1, PKR R510Q. The test can be described thus: PKR Mutant Assay (AC50), PKR R510Q. As for the experimental part:
as §1, §2

In test [8] the target is T2, PKR R532W. Briefly: PKR Mutant Assay (AC50), PKR R532W. As for the experimental part: as §1, §2
For test [9], the target named is PKR R479H (Homo sapiens, UniProt P30613, R479H). Briefly: PKR Mutant Assay (AC50), PKR R479H. On the procedure: as §1, §2
PKR R479H, sequence (P30613 whole entry R479H): as the sequence (P30613 whole entry R532W) above, with R479H, W532R counted along it
In test [10] the target is PKR T384W (Homo sapiens, UniProt P30613). Briefly: PKR Mutant Assay (AC50), PKR T384W. As for the experimental part:
as §1, §2

wild type PKR, sequence (P30613 whole entry): as the sequence (P30613 whole entry R532W) above, with W532R counted along it
PKR wt, sequence (P30613 whole entry): as the sequence (P30613 whole entry R532W) above, with W532R counted along it
PKR T384W (Homo sapiens, UniProt P30613, T384W), sequence (P30613 whole entry T384W): as the sequence (P30613 whole entry R532W) above, with T384W, W532R counted along it
PKR T384W (Homo sapiens, UniProt P30613), sequence (P30613 whole entry T384M): as the sequence (P30613 whole entry R532W) above, with T384M, W532R counted along it
T1 sequence (P30613 whole entry R510Q): as the sequence (P30613 whole entry R532W) above, with R510Q, W532R counted along it

What is called AC50 is the midpoint of the concentration-response curve, whichever way the signal moves. Regarding `COc1ccccc1N1CCN(C(=O)c2ccc(NS(=O)(=O)c3cccc4cccnc34)cc2)C(C)C1` (stereo not shown), the activation at 1 µM in [1], in [2], in test [4] and in [6] was 101 to 500% throughout. The AC50 in test [3] was < 100 nM; in test [5], 101 to 500 nM; in test [7], > 500 nM; in [8] it was < 100 nM; in test [9], < 100 nM; in test [10], < 100 nM.

As to `O=C(c1ccc(NS(=O)(=O)c2cccc3cccnc23)cc1)N1CCN(C[C@H]2CCOC2)CC1`, the activation at 1 µM in test [1] lay within 101 to 500%; in test [2] it was 101 to 500%; in test [4] it was 1 to 100%; in [6] it was 101 to 500%. In addition, the AC50 was < 100 nM in test [3]; 101 to 500 nM in [7]; < 100 nM in test [8]; < 100 nM in test [9]; < 100 nM in [10].

With `O=C(c1ccc(NS(=O)(=O)c2cccc3cccnc23)cc1)N1CCN(C[C@@H]2CCOC2)CC1`, the activation at 1 µM in [1] fell in the range of 101 to 500%; in [2] it was 101 to 500%; in test [4] it was 1 to 100%; in test [6], 1 to 100%. The AC50 in [3] was < 100 nM; in [7], 101 to 500 nM; in [8], < 100 nM; in [9], < 100 nM; in [10] it was < 100 nM.

Values taken from patent US9404081B2, “Pyruvate kinase activators for use in therapy” (AGIOS PHARMACEUTICALS, INC., priority 2011, dated 2016).
